1 compound from patent US11447525B2 (NIIGATA UNIVERSITY, priority 2018, dated 2022) can be followed below.

Non-standard residues stand in square brackets, D forms with d. Residues, ends and D or L forms follow the SMILES beside them. *: point of attachment. 5FAM = O=C1OC2(c3ccc(O)cc3Oc3cc(O)ccc32)c2ccc(C(=O)*)cc21; NMeR = CN[C@@H](CCCNC(=N)N)C(=O)O

In series [1] the test system is pancreatic cancer cells (BxPC3, PK-8, MIA-Paca2). The experiment in a line: Accumulation of FAM-labeled peptides in cells, inverted fluorescence microscope (Test Example 2). In kind it is cell-based, human. Particulars: 2 μM, 37° C., 2 hours. Here is the method:
Tests were conducted to confirm the accumulation of each peptide in each of the cells shown below in Table 8. Further, among the peptides shown below in Table 9, the FAM-PCPP11 used in Test Example 1, the LL peptide in which the N-terminus had been FAM-labeled (FAM-LL), and the Ld peptide in which the N-terminus had been FAM-labeled (FAM-Ld) were used.
Each of FAM-PCPP11, FAM-LL and FAM-Ld was added to each of the cells shown in Table 8 in an amount sufficient to achieve a final concentration in the medium of 2 μM, and following cultivation of the cells at 37° C. for 2 hours, the sample was washed 3 times with a medium containing no peptide to remove any peptide within the medium. Subsequently, the incorporation of each of the peptides into each of the cells was evaluated visually using an inverted fluorescence microscope. Prior to the microscopic examination, the culture supernatant to which the peptide had been added was removed, and following washing three times with 1×PBS (−), a trypsin treatment was conducted to remove the adherent cells, and the resultant was immediately transferred into a new 96-well plate and once again suspended in fresh culture solution before the microscopic examination was performed. In FIG. 8A, “L” indicates the cells to which FAM-PCPP11 was added, “LL” indicates the cells to which FAM-LL was added, and “Ld” indicates the cells to which FAM-Ld was added. Further, the fluorescent images in the BxPC3 cells indicate a representative example of pancreatic cancer cells.
Furthermore, FIG. 8B is a graph quantifying the fluorescence detected in each of the above cells in FIG. 8A, with the fluorescence intensity detected in each cell shown relative to a value of 1.0 for the fluorescence detected in the H2110 cells, which is a cell line derived from an adenocarcinoma in a human non-small-cell lung cancer system, to which each of the FAM-PCPP11 and FAM-LL peptides had been added.
Further, each of FAM-PCPP11, FAM-LL and FAM-NmLL was added to each of the cells shown in Table 8 in an amount sufficient to achieve a final concentration in the medium of 2 μM, and following cultivation of the cells at 37° C. for 2 hours, the sample was washed 3 times with a medium containing no peptide to remove any peptide within the medium. Subsequently, the incorporation of each of the peptides into each of the cells was evaluated visually using an inverted fluorescence microscope. […]

Series [2] has as its system scirrhous pancreatic cancer model mice (BxPC3, MIA-Paca2, AsPC1 or Capan-2 cells with hMSC). The experiment in a line: Selective absorption of FAM-NmLL in tissues of scirrhous pancreatic cancer model mice (Test Example 7). Type of series: in vivo, NOD/SCID, KPC and KC mouse. The conditions noted are these: 200 μg into the caudal vein, 30 minutes after administration; all of the mouse models. Here is the method:
FAM-NmLL was administered to pancreatic cancer model mice having scirrhous carcinoma, and the selective absorption of the FAM-NmLL in various tissues of the mouse was confirmed. A scirrhous pancreatic cancer model mouse having scirrhous carcinoma that forms abundant tumor-stroma interactions was produced in accordance with the method disclosed in the above Reference Document 1. Specifically, a 6-week old NOD/SCID mouse (CLEA Japan Inc., Japan), a Pdx1-Cre/KRAS^G12D (KC) mouse having a mutation in K-Ras, and a Pdx1-Cre/KRAS^G12D; p53^R172H (KPC) mouse having pancreatic cancer-specific mutations in K-Ras and p53 were raised under pathogen-free conditions. […]
FAM-NmLL (200 μg) was injected into the caudal vein of each of the obtained scirrhous pancreatic cancer model mice. Subsequently, the pharmacokinetics of the peptide 30 minutes after administration were analyzed by tissue analysis of the freshly dissected specimen of the peptide-administered mouse. […]

Turning to `C[C@@H](O)[C@H](NC(=O)[C@@H](NC(=O)[C@@H]1CCCN1C(=O)[C@H](CCCNC(=N)N)NC(=O)[C@H](CCCNC(=N)N)NC(=O)CNC(=O)[C@@H]1CCCN1C(=O)[C@H](CCCCN)NC(=O)[C@H](Cc1c[nH]cn1)NC(=O)[C@H](Cc1c[nH]c2ccccc12)NC(=O)[C@@H](NC(=O)[C@@H](NC(=O)[C@@H]1CCCN1C(=O)[C@H](CCCNC(=N)N)N(C)C(=O)[C@H](CCCNC(=N)N)NC(=O)c1ccc2c(c1)C(=O)OC21c2ccc(O)cc2Oc2cc(O)ccc21)[C@@H](C)O)[C@@H](C)O)[C@@H](C)O)C(=O)N[C@@H](Cc1c[nH]c2ccccc12)C(=O)N[C@@H](Cc1c[nH]cn1)C(=O)N[C@@H](CCCCN)C(=O)N1CCC[C@H]1C(=O)O` [FAM-NmLL] (5FAM-R[NMeR]PTTWHKPGRRPTTWHKP-OH; C-terminus assumed), the “fluorescence compared with the sample containing FAM-PCPP11” value in series [1] is “stronger fluorescence”. In addition, in series [2], the “absorption into the cancer cell nests inside the tumor tissues” value is on record as “strong absorption”; the “absorption into the tumor tissues (main lesions and metastatic lesions)” value was “strong absorption”.
